Broadly, the Ki is the dissociation constant of the complex between target and ligand, obtained from inhibition or displacement. The low end stands for higher affinity, the high end for lower affinity.

The experiment concerns the target T1, Serine protease 1 (Bos taurus, UniProt P00760).
T1 sequence (P00760 whole entry): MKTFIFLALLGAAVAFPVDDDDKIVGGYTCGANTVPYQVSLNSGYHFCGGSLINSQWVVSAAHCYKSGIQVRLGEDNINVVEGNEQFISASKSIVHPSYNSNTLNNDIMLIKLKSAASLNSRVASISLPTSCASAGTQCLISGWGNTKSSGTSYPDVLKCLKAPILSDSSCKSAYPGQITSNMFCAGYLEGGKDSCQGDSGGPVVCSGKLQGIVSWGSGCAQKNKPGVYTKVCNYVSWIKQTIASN
The experiment is described as follows: Serine Protease Inhibition Assay. As for the experimental part:
The enzyme reactions were initiated by the addition of substrate, and the color developed from the release of p-nitroanilide from each chromogenic substrate was monitored continuously for 5 min at 405 nm on a microtiter plate reader. […] The apparent Ki values were then calculated according to the Cheng-Prusoff equation: Ki = IC50/1 + [S]/Km.

On to `CCOc1cc(-c2ccccc2)cc(C(Nc2ccc(C(=N)N)cc2)C(=O)O)c1` (stereo unspecified) [2-[(4-carbamimidoylphenyl)amino]-2-(3-ethoxy-5-phenylphenyl)acetic acid], for which the Ki is above 68 µM.
